Results as given in ChEMBL document CHEMBL1201862, “PubChem BioAssay data set” (2004).
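Assay format: 96-well plates, 48-hour exposure. Abbreviation: GI50, concentration required for 50% inhibition of growth.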 Active and inactive are the calls of the source. Rule as the data show it: active = GI50 up to about 1.1 µM and inactive = higher.

Key:
Test in all cases: NCI anticancer screen, dose series, 48 h
[1] = test system: SK-OV-3
[2] = test system: MDA-MB-231
[3] = test system: SNB-75
[4] = test system: SR
[5] = test system: NCI-H522
[6] = test system: MCF7
[7] = test system: BT-549
[8] = test system: OVCAR-4
[9] = test system: SW-620
[10] = test system: HCT-15
[11] = test system: OVCAR-5
[12] = test system: A549
[13] = test system: SNB-19
[14] = test system: Hs-578T
[15] = test system: IGROV-1
[16] = test system: ACHN
[17] = test system: SK-MEL-5
[18] = test system: UACC-62
[19] = test system: SF-295
[20] = test system: UO-31
[21] = test system: SN12C
[22] = test system: NCI/ADR-RES
[23] = test system: HOP-62
[24] = test system: NCI-H23
[25] = test system: PC-3
[26] = test system: SF-539
[27] = test system: CCRF-CEM
[28] = test system: HCC 2998
[29] = test system: OVCAR-3
[30] = test system: SF-268
[31] = test system: U-251
[32] = test system: SK-MEL-28
[33] = test system: MDA-MB-435
[34] = test system: A498
[35] = test system: EKVX
[36] = test system: T47D
[37] = test system: MDA-N
[38] = test system: RXF 393
[39] = test system: KM12
[40] = test system: COLO 205
[41] = test system: DU-145
[42] = test system: HOP-92
[43] = test system: CAKI-1
[44] = test system: NCI-H460
[45] = test system: MOLT-4
[46] = test system: K562
[47] = test system: Malme-3M
[48] = test system: OVCAR-8
[49] = test system: LOX IMVI
[50] = test system: UACC-257
[51] = test system: SK-MEL-2
[52] = test system: 786-0
[53] = test system: TK-10
[54] = test system: NCI-H226
[55] = test system: HCT-116
[56] = test system: M14
[57] = test system: RPMI-8226
[58] = test system: HT-29

## NCCSCCC(=O)O
[1]
  GI50: > 65.8 µM (inactive)
[2]
  GI50: > 100 µM (inactive)
[3]
  GI50: > 40.3 µM (inactive)
[4]
  GI50: 14.4 µM (inactive)
[5]
  GI50: > 66.1 µM (inactive)
[6]
  GI50: > 57.1 µM (inactive)
[7]
  GI50: > 100 µM (inactive)
[8]
  GI50: > 100 µM (inactive)
[9]
  GI50: 19.7 µM (inactive)
[10]
  GI50: > 59 µM
[11]
  GI50: > 100 µM (inactive)
[12]
  GI50: > 69.2 µM (inactive)
[13]
  GI50: > 94.8 µM (inactive)
[14]
  GI50: > 100 µM (inactive)
[15]
  GI50: > 100 µM (inactive)
[16]
  GI50: > 25.6 µM (inactive)
[17]
  GI50: 39.9 µM (inactive)
[18]
  GI50: > 45.4 µM (inactive)
[19]
  GI50: > 48.4 µM (inactive)
[20]
  GI50: > 100 µM (inactive)
[21]
  GI50: > 43.1 µM (inactive)
[22]
  GI50: > 69.8 µM (inactive)
[23]
  GI50: > 68.5 µM (inactive)
[24]
  GI50: > 25.8 µM (inactive)
[25]
  GI50: > 82 µM (inactive)
[26]
  GI50: 21.9 µM (inactive)
[27]
  GI50: 23 µM (inactive)
[28]
  GI50: 28.6 µM (inactive)
[29]
  GI50: > 100 µM (inactive)
[30]
  GI50: > 77.3 µM (inactive)
[31]
  GI50: > 44 µM (inactive)
[32]
  GI50: 37.9 µM (inactive)
[33]
  GI50: > 100 µM (inactive)
[34]
  GI50: > 68.7 µM (inactive)
[35]
  GI50: > 100 µM (inactive)
[36]
  GI50: > 33.5 µM (inactive)
[37]
  GI50: > 81.7 µM (inactive)
[38]
  GI50: > 66.7 µM (inactive)
[39]
  GI50: > 82.8 µM (inactive)
[40]
  GI50: 30.4 µM (inactive)
[41]
  GI50: > 52 µM (inactive)
[42]
  GI50: > 100 µM (inactive)
[43]
  GI50: > 59.2 µM (inactive)
[44]
  GI50: > 12.4 µM (inactive)
[45]
  GI50: 29.7 µM (inactive)
[46]
  GI50: 31.8 µM (inactive)
[47]
  GI50: > 100 µM (inactive)
[48]
  GI50: > 84.3 µM (inactive)
[49]
  GI50: 39 µM (inactive)
[50]
  GI50: > 59 µM (inactive)
[51]
  GI50: > 83.8 µM (inactive)
[52]
  GI50: > 38.1 µM (inactive)
[53]
  GI50: > 67.1 µM (inactive)
[54]
  GI50: > 100 µM (inactive)
[55]
  GI50: > 56.6 µM (inactive)
[56]
  GI50: > 74.8 µM (inactive)
[57]
  GI50: 25.8 µM (inactive)
[58]
  GI50: > 84.1 µM (inactive)

## C[n+]1c2ccccc2c(C(=O)NC(CCCNC(=N)N)C(=O)O)c2ccccc21 (stereo not given)
[1]
  GI50: > 100 µM (inactive)
[2]
  GI50: > 100 µM (inactive)
[3]
  GI50: > 100 µM (inactive)
[4]
  GI50: 1.31 µM (inactive)
[6]
  GI50: > 100 µM (inactive)
[7]
  GI50: > 100 µM (inactive)
[8]
  GI50: > 100 µM (inactive)
[9]
  GI50: > 100 µM (inactive)
[10]
  GI50: > 100 µM
[11]
  GI50: > 100 µM (inactive)
[12]
  GI50: > 100 µM (inactive)
[13]
  GI50: > 100 µM (inactive)
[14]
  GI50: > 100 µM (inactive)
[15]
  GI50: > 100 µM (inactive)
[16]
  GI50: > 100 µM (inactive)
[17]
  GI50: > 100 µM (inactive)
[18]
  GI50: > 100 µM (inactive)
[19]
  GI50: > 100 µM (inactive)
[20]
  GI50: > 100 µM (inactive)
[21]
  GI50: > 100 µM (inactive)
[22]
  GI50: > 100 µM (inactive)
[23]
  GI50: > 100 µM (inactive)
[24]
  GI50: > 100 µM (inactive)
[25]
  GI50: > 100 µM (inactive)
[26]
  GI50: > 100 µM (inactive)
[28]
  GI50: > 100 µM (inactive)
[29]
  GI50: > 100 µM (inactive)
[30]
  GI50: > 100 µM (inactive)
[31]
  GI50: > 100 µM (inactive)
[32]
  GI50: > 100 µM (inactive)
[33]
  GI50: > 100 µM (inactive)
[34]
  GI50: > 100 µM (inactive)
[35]
  GI50: > 100 µM (inactive)
[36]
  GI50: > 100 µM (inactive)
[37]
  GI50: > 100 µM (inactive)
[39]
  GI50: > 100 µM (inactive)
[40]
  GI50: > 100 µM (inactive)
[41]
  GI50: > 100 µM (inactive)
[44]
  GI50: > 100 µM (inactive)
[45]
  GI50: > 100 µM (inactive)
[46]
  GI50: > 100 µM (inactive)
[47]
  GI50: > 100 µM (inactive)
[48]
  GI50: > 100 µM (inactive)
[49]
  GI50: > 100 µM (inactive)
[50]
  GI50: > 100 µM (inactive)
[51]
  GI50: > 100 µM (inactive)
[52]
  GI50: > 100 µM (inactive)
[53]
  GI50: > 100 µM (inactive)
[55]
  GI50: > 100 µM (inactive)
[56]
  GI50: > 100 µM (inactive)
[57]
  GI50: > 100 µM (inactive)
[58]
  GI50: > 100 µM (inactive)
